Experimental data: PMC9824425, “Ammonium Uptake, Mediated by Ammonium Transporters, Mitigates Manganese Toxicity in Duckweed, Spirodela polyrhiza” (Plants, 2023)

How the values were obtained:
SpAMT1;3 = conditions: NH4Cl 10-10,000 µM; pH 5.5 (MES/Tris); choline chloride 110 mM; membrane potential for the fit not told
SpAMT1;1 = conditions: NH4Cl 10-10,000 µM; pH 5.5 (MES/Tris); choline chloride 110 mM; membrane potential for the fit not told

Question: Which Km (SpAMT1;3) does the source give for `N` [ammonium] here?
Answer: 5400 µM

Question: What about the Km (SpAMT1;1) of the same compound?
Answer: 116 µM
